PMC10285738, “Identification of macrocyclic peptides which activate bacterial cylindrical proteases” (RSC Medicinal Chemistry, 2023)
Starred links: 1 amine or outer side, 2 acyl side, 3 side chain; linkers in the order of their positions; H or OH if unused. Positions of bridges follow the written chain, without caps; N, C: chain ends. Non-standard residues stand in square brackets, D forms with d. Residues, ends and D or L forms follow the SMILES beside them. Phe(3,5-F2) = N[C@@H](Cc1cc(F)cc(F)c1)C(=O)O; CH2COCH2 = O=C(C[*:1])C[*:2]

Experiments:
[1] = two-component Cys/Cys stapling: bis-thiol-Michael addition to 4,6-divinylpyrimidine bearing N-methylglycine (constraint 1 = A), 1.1 equiv; TCEP 1.1 equiv added if the peptide had oxidised; conditions: the molecule shown is the open-chain precursor, 100 mM phosphate buffer pH 7.4 with DMSO from peptide and staple stocks, 2.8 mM, 22.0 °C, 2 steps
[2] = two-component Cys/Cys stapling: bis-thioether alkylation with 1,3-dichloroacetone (B), 1.1 equiv; TCEP 1.1 equiv added if the peptide had oxidised; conditions: the molecule shown is the open-chain precursor, 100 mM phosphate buffer pH 7.4 with DMSO (peptide stock) and MeCN (staple stock), 2.7 mM, 22.0 °C, 2 steps
Sa.ClpP = target: T1, Sa.ClpP (Staphylococcus aureus, UniProt Q2G036); experiment: Thermal shift assay (differential scanning fluorimetry); format: binding; conditions: S. aureus ClpP 5 µM, ligand 200 µM, HEPES 100 mM pH 7, NaCl 150 mM, sypro orange 5x, 30-90 °C in 0.5 °C increments; mean ± SD of duplicates of at least two independent experiments
T1 construct: Strep-tag (C); made in house; host or cells: E. coli SG1146a (lacks endogenous ClpP)
Source text: All concentrations are given as final concentrations. […]
real-time qPCR (Bio-Rad CF X96).
SD of duplicates of at least two independent experiments.
equilibrated Superdex 200 Increase 10/300 GL column (Cytiva). […]

T1 sequence (Q2G036 whole entry): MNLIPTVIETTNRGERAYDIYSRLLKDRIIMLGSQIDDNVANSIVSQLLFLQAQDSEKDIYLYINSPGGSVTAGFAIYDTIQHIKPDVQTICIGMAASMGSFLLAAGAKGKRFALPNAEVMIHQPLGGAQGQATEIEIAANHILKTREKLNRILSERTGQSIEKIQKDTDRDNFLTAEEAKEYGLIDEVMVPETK

## C=Cc1cc(CCSC[C@H](NC(C)=O)C(=O)NCC(=O)N[C@H](C(=O)NCC(=O)N[C@@H](C)C(=O)NCC(=O)N[C@@H](CS)C(N)=O)[C@@H](C)CC)nc(N(C)CC(=O)O)n1 [Ac-Cys-Gly-Ile-Gly-Ala-Gly-Cys-NH2]
[1]; 30-membered ring
  ring closure, yield over several steps: 90.6%

## CC[C@H](C)[C@H](NC(=O)CNC(=O)[C@H](CSCC(=O)CCl)NC(C)=O)C(=O)NCC(=O)N[C@@H](C)C(=O)NCC(=O)N[C@@H](CS)C(N)=O [Ac-Cys-Gly-Ile-Gly-Ala-Gly-Cys-NH2]
[2]; 26-membered ring
  ring closure, yield over several steps: 18.4%

## C=Cc1cc(CCSC[C@H](NC(C)=O)C(=O)NCC(=O)N[C@H](C(=O)NCC(=O)N[C@H](Cc2ccccc2)C(=O)NCC(=O)N[C@@H](CS)C(N)=O)[C@@H](C)CC)nc(N(C)CC(=O)O)n1 [Ac-Cys-Gly-Ile-Gly-D-Phe-Gly-Cys-NH2]
[1]; 30-membered ring
  ring closure, yield over several steps: 61%

## CC[C@H](C)[C@H](NC(=O)CNC(=O)[C@H](CSCC(=O)CCl)NC(C)=O)C(=O)NCC(=O)N[C@H](Cc1ccccc1)C(=O)NCC(=O)N[C@@H](CS)C(N)=O [Ac-Cys-Gly-Ile-Gly-D-Phe-Gly-Cys-NH2]
[2]; 26-membered ring
  ring closure, yield over several steps: 46.6%

## C=Cc1cc(CCSC[C@H](NC(C)=O)C(=O)NCC(=O)N[C@H](C(=O)NCC(=O)N[C@@H](Cc2cc(F)cc(F)c2)C(=O)NCC(=O)N[C@@H](CS)C(N)=O)[C@@H](C)CC)nc(N(C)CC(=O)O)n1 [Ac-Cys-Gly-Ile-Gly-Phe(3,5-F2)-Gly-Cys-NH2]
[1]; 30-membered ring
  ring closure, yield over several steps: 14.1%

## CC[C@H](C)[C@H](NC(=O)CNC(=O)[C@H](CSCC(=O)CCl)NC(C)=O)C(=O)NCC(=O)N[C@@H](Cc1cc(F)cc(F)c1)C(=O)NCC(=O)N[C@@H](CS)C(N)=O [Ac-Cys-Gly-Ile-Gly-Phe(3,5-F2)-Gly-Cys-NH2]
[2]; 26-membered ring
  ring closure, yield over several steps: 43.3%

## C=Cc1cc(CCSC[C@H](NC(C)=O)C(=O)NCC(=O)N[C@H](C(=O)NCC(=O)N[C@@H](Cc2ccccc2)C(=O)NCC(=O)N[C@@H](C)C(=O)N[C@@H](CS)C(N)=O)[C@@H](C)CC)nc(N(C)CC(=O)O)n1 [Ac-Cys-Gly-Ile-Gly-Phe-Gly-Ala-Cys-NH2]
[1]; 33-membered ring
  ring closure, yield over several steps: 46.2%

## CC[C@H](C)[C@H](NC(=O)CNC(=O)[C@H](CSCC(=O)CCl)NC(C)=O)C(=O)NCC(=O)N[C@@H](Cc1ccccc1)C(=O)NCC(=O)N[C@@H](C)C(=O)N[C@@H](CS)C(N)=O [Ac-Cys-Gly-Ile-Gly-Phe-Gly-Ala-Cys-NH2]
[2]; 29-membered ring
  ring closure, yield over several steps: 48.3%

## C=Cc1cc(CCSC[C@H](NC(C)=O)C(=O)NCC(=O)N[C@H](C(=O)NCC(=O)N[C@@H](Cc2ccccc2)C(=O)NCC(=O)N[C@@H](C)C(=O)N[C@H](C(=O)N[C@@H](CS)C(N)=O)[C@@H](C)O)[C@@H](C)CC)nc(N(C)CC(=O)O)n1 [Ac-Cys-Gly-Ile-Gly-Phe-Gly-Ala-Thr-Cys-NH2]
[1]; 36-membered ring
  ring closure, yield over several steps: 34.3%

## CC[C@H](C)[C@H](NC(=O)CNC(=O)[C@H](CSCC(=O)CCl)NC(C)=O)C(=O)NCC(=O)N[C@@H](Cc1ccccc1)C(=O)NCC(=O)N[C@@H](C)C(=O)N[C@H](C(=O)N[C@@H](CS)C(N)=O)[C@@H](C)O [Ac-Cys-Gly-Ile-Gly-Phe-Gly-Ala-Thr-Cys-NH2]
[2]; 32-membered ring
  ring closure, yield over several steps: 19%

## C=Cc1cc(CCSC[C@H](NC(C)=O)C(=O)NCC(=O)N[C@H](C(=O)NCC(=O)N[C@@H](Cc2ccccc2)C(=O)NCC(=O)N[C@@H](CS)C(N)=O)[C@@H](C)CC)nc(N(C)CC(=O)O)n1 [Ac-Cys-Gly-Ile-Gly-Phe-Gly-Cys-NH2]
[1]; 30-membered ring
  ring closure, yield over several steps: 6.8%

## CC[C@H](C)[C@H](NC(=O)CNC(=O)[C@H](CSCC(=O)CCl)NC(C)=O)C(=O)NCC(=O)N[C@@H](Cc1ccccc1)C(=O)NCC(=O)N[C@@H](CS)C(N)=O [Ac-Cys-Gly-Ile-Gly-Phe-Gly-Cys-NH2]
[2]; 26-membered ring
  ring closure, yield over several steps: 27.3%

## C=Cc1cc(CCSC[C@H](NC(C)=O)C(=O)N[C@H](C(=O)NCC(=O)N[C@@H](Cc2ccccc2)C(=O)NCC(=O)N[C@@H](C)C(=O)N[C@@H](CS)C(N)=O)[C@@H](C)CC)nc(N(C)CC(=O)O)n1 [Ac-Cys-Ile-Gly-Phe-Gly-Ala-Cys-NH2]
[1]; 30-membered ring
  ring closure, yield over several steps: 25.7%

## CC[C@H](C)[C@H](NC(=O)[C@H](CSCC(=O)CCl)NC(C)=O)C(=O)NCC(=O)N[C@@H](Cc1ccccc1)C(=O)NCC(=O)N[C@@H](C)C(=O)N[C@@H](CS)C(N)=O [Ac-Cys-Ile-Gly-Phe-Gly-Ala-Cys-NH2]
[2]; 26-membered ring
  ring closure, yield over several steps: 13.5%

## C=Cc1cc(CCSC[C@H](NC(C)=O)C(=O)N[C@H](C(=O)NCC(=O)N[C@@H](Cc2ccccc2)C(=O)NCC(=O)N[C@@H](C)C(=O)N[C@H](C(=O)N[C@@H](CS)C(N)=O)[C@@H](C)O)[C@@H](C)CC)nc(N(C)CC(=O)O)n1 [Ac-Cys-Ile-Gly-Phe-Gly-Ala-Thr-Cys-NH2]
[1]; 33-membered ring
  ring closure, yield over several steps: 20.5%

## CC[C@H](C)[C@H](NC(=O)[C@H](CSCC(=O)CCl)NC(C)=O)C(=O)NCC(=O)N[C@@H](Cc1ccccc1)C(=O)NCC(=O)N[C@@H](C)C(=O)N[C@H](C(=O)N[C@@H](CS)C(N)=O)[C@@H](C)O [Ac-Cys-Ile-Gly-Phe-Gly-Ala-Thr-Cys-NH2]
[2]; 29-membered ring
  ring closure, yield over several steps: 55.3%

## C=Cc1cc(CCSC[C@H](NC(C)=O)C(=O)N[C@H](C(=O)NCC(=O)N[C@@H](Cc2ccccc2)C(=O)NCC(=O)N[C@@H](CS)C(N)=O)[C@@H](C)CC)nc(N(C)CC(=O)O)n1 [Ac-Cys-Ile-Gly-Phe-Gly-Cys-NH2]
[1]; 27-membered ring
  ring closure, yield over several steps: 75.6%

## CC[C@H](C)[C@@H]1NC(=O)CNC(=O)[C@@H](NC(C)=O)CSCC(=O)CSC[C@@H](C(N)=O)NC(=O)CNC(=O)[C@H](Cc2cc(F)cc(F)c2)NC(=O)CNC1=O [P9-B] (Ac-CGIG[Phe(3,5-F2)]GC-NH2; linker 1-7 via CH2COCH2)
Sa.ClpP
  apparent increase in melting temperature of Sa.ClpP: 1.1 ± 0.2 °C
